A short description of data set [1]: Toxicity in chronic restraint stress-induced depressive C57BL/6J mouse model assessed as liver pathological change at 25 to 300 microg/kg,ip administrated on day 29 to 33 measured on day 36 by hematoxylin and eosin staining based microscopic analysis. The format is tissue-based. Particulars: in vivo, 192 h, dose 25-300 µg/kg, time 8 day.
Data set [2] in a line: Toxicity in chronic restraint stress-induced depressive C57BL/6J mouse model assessed as heart pathological change at 25 to 300 microg/kg,ip administrated on day 29 to 33 measured on day 36 by hematoxylin and eosin staining based microscopic analysis. The class given is tissue-based. Particulars: in vivo, 192 h, dose 25-300 µg/kg, time 8 day.
Data set [3] in a line: Tmax in Sprague-Dawley rat at 0.3 mg/kg,ip measured at 0.05 to 24 hrs of post administration by LC-MS/MS analysis. The format is ADME, organism-based. The following applies: in vivo, time 0.05-24 hrs.
Data set [4] can be described thus: Toxicity in chronic restraint stress-induced depressive C57BL/6J mouse model assessed as memory impairment at 4 mg/kg,ip administration and measured after 4 hrs by novel object recognition test. The class given is organism-based. The following applies: in vivo.
The nature of data set [5]: Toxicity in chronic restraint stress-induced depressive C57BL/6J mouse model assessed as decrease in percentage of spontaneous alternation at 1 mg/kg,ip administration by Y-maze test. The class given is organism-based. Particulars: in vivo.
The test system of data set [6] is Mus musculus. Briefly: Antidepressant activity in Reserpine-induced depressive C57BL/6J mouse model assessed as decrease in immobility time at 0.1 to 1 mg/kg,ip administration measured after 30 mins by tail suspension test. The following applies: dose 0.1-1 mg/kg. The class given is functional, organism-based.
In data set [7] the test system is Mus musculus. Description: Antidepressant activity in chronic restraint stress-induced depressive C57BL/6J mouse model assessed as increase in hippocampal BDNF mRNA expression at 0.3 mg/kg,ip administration measured after 8 hrs by qRT-PCR analysis. The class given is functional, organism-based. In general terms: Quantitative PCR measures a nucleic acid by following its amplification.

In data set [8] the test system is Mus musculus. Description: Antidepressant activity in chronic restraint stress-induced depressive C57BL/6J mouse model assessed as reduction in immobility time at 100 to 300 microg/kg,ip administrated on day 29 to 33 measured on day 35 by forced swimming test. The format is functional, organism-based. Particulars: dose 100-300 µg/kg, time 7.0 day.
The nature of data set [9]: AUC (0 to last) in Sprague-Dawley rat at 0.3 mg/kg,iv measured at 0.05 to 24 hrs of post administration by LC-MS/MS analysis. The class given is ADME, organism-based. Particulars: in vivo, time 0.05-24 hrs.
The test system of data set [10] is Mus musculus. Briefly: Antidepressant activity in chronic restraint stress-induced depressive C57BL/6J mouse model assessed as change in total distance traveled at 25 to 300 microg/kg,ip administrated on day 29 to 33 measured on day 34 by open field test. The format is functional, organism-based. Particulars: dose 25-300 µg/kg, time 6.0 day.
The test system of data set [11] is Mus musculus. Briefly: Antidepressant activity in Reserpine-induced depressive ICR mouse model assessed as decrease in immobility time at 300 microg/kg,ip administrated on day 4 to 8 measured on day 11 by tail suspension test. The following applies: dose 300.0 µg/kg, time 8.0 day. The class given is functional, organism-based.

Experimental findings from ChEMBL document CHEMBL5543096 (J Med Chem, 2024) are described below.

Activity calls are given as the source filed them. The rule behind the calls is not given here.

Usually Tmax stands for the time from dosing to the highest level. By AUC(0-t) is commonly meant exposure summed from dosing to a finite time, without extrapolation to infinity. Regarding `CN1[C@@H]2C[C@@H](OC(=O)[C@@](F)(CO)c3ccccc3)C[C@H]1[C@@H]1O[C@@H]12`, the Activity entry is given as “Non-Toxic” in data set [1], “Non-Toxic” in data set [2], “Toxic” in data set [4] and “Non-Toxic” in [5]. The Tmax in [3] is 12.5 min. Further, the outcome in the data set with Mus musculus [6], with Mus musculus [7], in the data set on Mus musculus [8] and in the data set on Mus musculus [11] was Active. The AUC(0-t) in [9] turned out to be 68.3 ng·h/mL. Further, the outcome with Mus musculus [10] was inactive.
